Measured values from patent US20240238242A1, “EGCG buccal tablet and use thereof” (priority 2023, published 2024).

What was measured:
[1] = test system: SARS-CoV-2 BJ-01 virus; assay: In vitro effect of EGCG on SARS-CoV-2 BJ-01 infection (co-incubation, then Vero-E6 cells); type: cell-based; details: 2.18 mM EGCG co-incubated 1, 2, 4 and 8 minutes at room temperature; Vero-E6, 48 hours
Description: In this experimental example, SARS-CoV-2 BJ-01 virus was provided by the Military Veterinary Research Institute, Academy of Military Medical Sciences, Academy of Military Sciences, and its Accession Number at NCBI was MT291831; Vero-E6 cells were provided by the Military Veterinary Research Institute, Academy of Military Medical Sciences, Academy of Military Sciences; and the culture medium was Dulbecco's Modified Eagle Medium, purchased from Thermo Scientific, catalog number: C11995500BT.
The incubation of drug EGCG with SARS-CoV-2 BJ-01 virus in the culture medium was designed according to the time gradient, in which the incubation time was: 1 minute, 2 minutes, 4 minutes, 8 minutes, the EGCG concentration in the incubation system was 1 mg/mL (2.18 mM), and the virus titer in the incubation system was 10^7 TCID50. After incubation, the incubation system was diluted 10 times and used to infect Vero-E6 cells. After 48 hours, the Ct value of the cell supernatant was detected.

[2] = test system: Coronavirus (hCoV-229E); assay: Inactivation efficiency against coronavirus hCoV-229E strain (residual TCID50 on Huh-7 cells); type: cell-based; details: for CPE test (virus replication in cell wells): wells 1-10

O=C(O[C@@H]1Cc2c(O)cc(O)cc2O[C@@H]1c1cc(O)c(O)c(O)c1)c1cc(O)c(O)c(O)c1 [EGCG, Epigallocatechin gallate]
significantly reduced: number of live viruses (virus copy number in cell supernatant) [1]
+: CPE test (virus replication in cell wells) ([2]; 0.2 mM EGCG + hCoV-229E virus, co-incubated 1 minute, first experiment, dilution factor 10^1) | CPE test (virus replication in cell wells) ([2]; 0.2 mM EGCG + hCoV-229E virus, co-incubated 1 minute, first experiment, dilution factor 10^2) | CPE test (virus replication in cell wells) ([2]; 0.2 mM EGCG + hCoV-229E virus, co-incubated 1 minute, first experiment, dilution factor 10^3) | CPE test (virus replication in cell wells) ([2]; 0.2 mM EGCG + hCoV-229E virus, co-incubated 1 minute, first experiment, dilution factor 10^4) | CPE test (virus replication in the cell wells) ([2]; 0.2 mM EGCG + virus, co-incubated 5 minute, first experiment, dilution factor 10^1, wells 1-10) | CPE test (virus replication in the cell wells) ([2]; 0.2 mM EGCG + virus, co-incubated 5 minute, first experiment, dilution factor 10^2, wells 1-10) | CPE test (virus replication in the cell wells) ([2]; 0.2 mM EGCG + virus, co-incubated 5 minute, first experiment, dilution factor 10^3, wells 1-10) | CPE test (virus replication in the cell wells) ([2]; 0.2 mM EGCG + virus, co-incubated 5 minute, first experiment, dilution factor 10^4, wells 1-10) | CPE test (virus replication in the cell wells) ([2]; 0.2 mM EGCG + virus, co-incubated 5 minute, second experiment, dilution factor 10^1, wells 1-10) | CPE test (virus replication in the cell wells) ([2]; 0.2 mM EGCG + virus, co-incubated 5 minute, second experiment, dilution factor 10^2, wells 1-10) | CPE test (virus replication in the cell wells) ([2]; 0.2 mM EGCG + virus, co-incubated 5 minute, second experiment, dilution factor 10^3, wells 1-10) | CPE test (virus replication in the cell wells) ([2]; 0.2 mM EGCG + virus, co-incubated 5 minute, second experiment, dilution factor 10^4, wells 1-10) | CPE test (virus replication in the cell wells) ([2]; 0.2 mM EGCG + virus, co-incubated 5 minutes, dilution factor 10^1, wells 1-10, third experiment) | CPE test (virus replication in the cell wells) ([2]; 0.2 mM EGCG + virus, co-incubated 5 minutes, dilution factor 10^2, wells 1-10, third experiment) | CPE test (virus replication in the cell wells) ([2]; 0.2 mM EGCG + virus, co-incubated 5 minutes, dilution factor 10^3, wells 1-10, third experiment) | CPE test (virus replication in the cell wells) ([2]; 0.2 mM EGCG + virus, co-incubated 5 minutes, dilution factor 10^5, wells 1-10, third experiment) | CPE test (virus replication in cell wells) ([2]; 0.2 mM EGCG + virus, hCoV-229E co-incubated 1 minute, second experiment, dilution factor 10^1) | CPE test (virus replication in cell wells) ([2]; 0.2 mM EGCG + virus, hCoV-229E co-incubated 1 minute, second experiment, dilution factor 10^2) | CPE test (virus replication in cell wells) ([2]; 0.2 mM EGCG + virus, hCoV-229E co-incubated 1 minute, second experiment, dilution factor 10^3) | CPE test (virus replication in cell wells) ([2]; 0.2 mM EGCG + virus, hCoV-229E co-incubated 1 minute, second experiment, dilution factor 10^4)
−: CPE test (virus replication in cell wells) ([2]; 0.2 mM EGCG + hCoV-229E virus, co-incubated 1 minute, first experiment, dilution factor 10^6) | CPE test (virus replication in cell wells) ([2]; 0.2 mM EGCG + hCoV-229E virus, co-incubated 1 minute, first experiment, dilution factor 10^7) | CPE test (virus replication in cell wells) ([2]; 0.2 mM EGCG + hCoV-229E virus, co-incubated 1 minute, first experiment, dilution factor 10^8) | CPE test (virus replication in the cell wells) ([2]; 0.2 mM EGCG + virus, co-incubated 5 minute, first experiment, dilution factor 10^7, wells 1-10) | CPE test (virus replication in the cell wells) ([2]; 0.2 mM EGCG + virus, co-incubated 5 minute, first experiment, dilution factor 10^8, wells 1-10) | CPE test (virus replication in the cell wells) ([2]; 0.2 mM EGCG + virus, co-incubated 5 minute, second experiment, dilution factor 10^7, wells 1-10) | CPE test (virus replication in the cell wells) ([2]; 0.2 mM EGCG + virus, co-incubated 5 minute, second experiment, dilution factor 10^8, wells 1-10) | CPE test (virus replication in the cell wells) ([2]; 0.2 mM EGCG + virus, co-incubated 5 minutes, dilution factor 10^7, wells 1-10, third experiment) | CPE test (virus replication in the cell wells) ([2]; 0.2 mM EGCG + virus, co-incubated 5 minutes, dilution factor 10^8, wells 1-10, third experiment)
− and +: CPE test (virus replication in cell wells) ([2]; 0.2 mM EGCG + hCoV-229E virus, co-incubated 1 minute, first experiment, dilution factor 10^5) | CPE test (virus replication in the cell wells) ([2]; 0.2 mM EGCG + virus, co-incubated 5 minute, second experiment, dilution factor 10^6, wells 1-10) | CPE test (virus replication in the cell wells) ([2]; 0.2 mM EGCG + virus, co-incubated 5 minutes, dilution factor 10^6, wells 1-10, third experiment)
+ and −: CPE test (virus replication in the cell wells) ([2]; 0.2 mM EGCG + virus, co-incubated 5 minute, first experiment, dilution factor 10^5, wells 1-10) | CPE test (virus replication in the cell wells) ([2]; 0.2 mM EGCG + virus, co-incubated 5 minute, first experiment, dilution factor 10^6, wells 1-10) | CPE test (virus replication in the cell wells) ([2]; 0.2 mM EGCG + virus, co-incubated 5 minute, second experiment, dilution factor 10^5, wells 1-10) | CPE test (virus replication in the cell wells) ([2]; 0.2 mM EGCG + virus, co-incubated 5 minutes, dilution factor 10^4, wells 1-10, third experiment)
